One data set can be described thus: in vitro. The conditions noted are these: human, Caco-2, pH 7.4. The method, then:
Example 28: Caco-2 Permeability Assay
The goal of this assay was to evaluate the intestinal absorption potential of drug candidates using Caco-2 cell lines.
1. Prewarm Prewarm HBSS Buffer in 37° C. water bath
2. Sonicate Take compounds from −20° C., sonicate for a few minutes (no less than 1 minute)
HBSS buffer with 0.3% DMSO and 5 μM LY: add 150 μL DMSO and 50 μL LY (5 mM) into 50 ml HBSS buffer (pH 7.4).
HBSS buffer with 0.1% DMSO and 5 μM LY: add 50 μL DMSO and 50 μL LY (5 mM) into 50 mL HBSS buffer (pH 7.4).
HBSS buffer with 0.3% DMSO: add 150 μL DMSO into 50 ml HBSS buffer (pH 7.4).
HBSS buffer with 0.1% DMSO: add 50 μL DMSO into 50 ml HBSS buffer (pH 7.4).
Receiver Solution Buffer:
Prepare HBSS buffer with 0.4% DMSO: add 200 μL DMSO into 50 ml HBSS buffer (pH 7.4).
Prepare HBSS buffer with 0.4% DMSO and 5 μM LY: add 200 μL DMSO and 50 μL LY (5 mM) into 50 ml HBSS buffer (pH 7.4).
4. Measure TEER Take cell culture plate out of incubator, wash the cell monolayers with HBSS buffer, and then measure TEER values at Rm temperature. 5. Centrifuge Centrifuge the compound solution (from step 3) at 4000 rpm for 5 min before loading to donor chambers. 6. Dosing Add solution based on the volumes listed in the following table (make sure to take extra 100 μL of donor sample for TO as Backup).
7. Apical LYT0 Samples To determine LY concentration in the apical chember, take 100 μL sample from apical chambers into an opaque plate for LYT0. 8. Prewarm Prewarm apical and basolateral plates at 37° C. for about 5 min, then begin transport by placing the apical plate onto basolateral plate. 9. Incubation Keep the plates in incubator at 37° C. for 90 min. 10. Standard Curve Preparation
For 300 μM compound solution, add 6 μL of compound stock solution into 192 μL of MeOH/H2O (1:1).
Prepare Working Solution in MeOH/H2O (1:1)
3 μL (20×)+57 μL of 0.4% DMSO HBSS+60 μL ACN with IS (Osalmid or Imipramine) - - - 120 μL (1×)
11. Transport Termination Separate the apical plate from the basolateral plate after 90-min incubation.
12. Measure LY Take 100 μL samples from basolateral plate to an opaque plate as LYT90.
13. Measure LY concentrations for LYT0 and LYT90 by Fluorometer (at excitation of 485 nm/emission of 535 nm).
Study details: Test concentration 10 μM
Test systems: Caco-2/HBSS solution
Incubation conditions: 0, 90 min at 37° C.
Sample size: Duplicates (n=2)
Bioanalytical method: LC-MS/MS
For Millicell-24 Cell Culture Plates: surface area of the membrane=0.7 cm^2, VA=0.8 mL (A-to-B) or 0.4 mL (B-to-A)
1. Papp values were calculated based on calculated concentrations.
The compound numbers correspond to the compound numbers in Table 1.

Data set [1] has as its target CXCR-4 transfected U87 cell line (U87.CXCR4) (Homo sapiens (Human), UniProt P61073). Description: Intracellular CXCL-12-induced calcium mobilization assay (FLIPR). Format: cell-based. The conditions noted are these: U87.CXCR4 cells, CXCL-12 25-50 ng/mL; read-out: IC50 CXCL-12 Ca2+ flux U87.CXCR4+. As for the experimental part: Example 28: REGA Screening Assay
Intracellular CXCL-12-Induced Calcium Mobilization Assay
Intracellular calcium mobilization induced by chemokines or chemokine-derived peptides were evaluated using a calcium responsive fluorescent probe and a FLIPR system. The CXCR-4 transfected U87 cell line (U87.CXCR4) cells were seeded in gelatine-coated black-wall 96-well plates at 20,000 cells per well and incubated for 12 hours. Cells were then loaded with the fluorescent calcium probe Fluo-2 acetoxymethyl at 4 μM final concentration in assay buffer (Hanks' balanced salt solution with 20 mM HEPES buffer and 0.2% bovine serum albumin, pH 7.4) for 45 min at 37° C. The intracellular calcium mobilization induced by the CXCL-12 (25-50 ng/mL) was then measured at 37° C. by monitoring the fluorescence as a function of time in all the wells simultaneously using a fluorometric imaging plate reader (FLIPR Tetra, Molecular Devices).

Data set [2] has as its target Jurkat cells expressing CXCR4 (Homo sapiens (Human), UniProt P61073). Description: Chemokine (CXCL12-AF647) binding inhibition assay. The conditions noted are these: CXCL12-AF647 25 ng/mL, read-out: IC50 CXCL-12 binding Jurkat. The method, then: Chemokine (CXCL12-AF647) Binding Inhibition Assay
Jurkat cells expressing CXCR4 were washed once with assay buffer (Hanks' balanced salt solution with 20 mM HEPES buffer and 0.2% bovine serum albumin, pH 7.4) and then incubated for 15 min at room temperature with the test compounds diluted in assay buffer at dose-dependent concentrations. Subsequently, CXCL12-AF647 (25 ng/mL) was added to the compound-incubated cells. The cells were incubated for 30 min at room temperature. Thereafter, the cells were washed twice in assay buffer, fixed in 1% paraformaldehyde in PBS, and analyzed on the FL4 channel of a FACSCalibur flow cytometer equipped with a 635-nm red diode laser (Becton Dickinson, San Jose, Calif., USA).
The percentages of inhibition of CXCL12-AF647 binding were calculated according to the formula: [1−((MFI−MFINC)/(MFIPC−MFINC))]×100 where MFI is the mean fluorescence intensity of the cells incubated with CXCL12-AF647 in the presence of the inhibitor, MFINC is the mean fluorescence intensity measured in the negative control (i.e., autofluorescence of unlabeled cells), and MFIPC is the mean fluorescence intensity of the positive control (i.e., cells exposed to CXCL12-AF647 alone).

Structures are written as SMILES.

Sequence of Jurkat cells expressing CXCR4 (P61073 whole entry): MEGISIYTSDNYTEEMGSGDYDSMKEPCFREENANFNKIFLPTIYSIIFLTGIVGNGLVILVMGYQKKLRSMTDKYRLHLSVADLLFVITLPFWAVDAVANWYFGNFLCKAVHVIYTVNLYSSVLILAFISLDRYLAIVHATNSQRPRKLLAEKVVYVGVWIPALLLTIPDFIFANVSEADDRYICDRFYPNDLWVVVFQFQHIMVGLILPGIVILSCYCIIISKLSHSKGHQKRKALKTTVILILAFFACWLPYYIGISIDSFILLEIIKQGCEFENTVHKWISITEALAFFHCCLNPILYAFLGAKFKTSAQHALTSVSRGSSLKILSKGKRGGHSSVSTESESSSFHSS
Sequence of CXCR-4 transfected U87 cell line (U87.CXCR4) (P61073 whole entry): as above

Broadly, the Papp A→B is the apparent permeability from the apical to the basolateral side of a cell layer. Read a low Papp A→B as poor permeation. By Papp B→A is commonly meant how fast a substance crosses the layer from the basolateral side. Broadly, the efflux ratio is the permeability from basolateral to apical divided by that in the opposite direction, in the common usage. As usually defined, the IC50 is the concentration that inhibits the measured activity by half. `CCN1CCN(c2cccc3nc([C@H]4CCC[C@@H](c5ncccc5C)N4C)c(COC(C)C)n23)CC1` [Compound I-60]: in “in vitro”, the apparent permeability from apical to basolateral (Papp A→B) at 90 min, 10 μM was 0.1 to 10 ×10⁻⁶ cm/s; the Papp B→A at 90 min, 10 μM is 10 to 30 ×10⁻⁶ cm/s; the efflux ratio at 90 min, 10 μM lay in the range of 0.1 to 10. Moreover, in data set [1], the IC50 is 0.01 to 100 nM. Moreover, in data set [2], the half-maximal inhibitory concentration (IC50) is 0.01 to 100 nM.
On to `CCN1CCN(c2cccc3nc([C@H]4CCC[C@@H](c5ncccc5C)N4C)c(CO)n23)CC1` [Compound I-61], for which, in the data set “in vitro”, the Papp A→B at 90 min, 10 μM lay in the range of 0.1 to 10 ×10⁻⁶ cm/s; the basolateral-to-apical permeability (Papp B→A) at 90 min, 10 μM is 10 to 30 ×10⁻⁶ cm/s; the efflux ratio at 90 min, 10 μM fell in the range of 0.1 to 10. Besides, the half-maximal inhibitory concentration (IC50) in data set [1] was in the range of 0.01 to 100 nM. Moreover, the IC50 in data set [2] fell in the range of 0.01 to 100 nM.
For the molecule `Cc1cccnc1[C@@H]1CCC[C@H](c2nc3ccccn3c2COC2CCN(C)CC2)N1C` [Compound I-62], in “in vitro”, the apical-to-basolateral permeability (Papp A→B) at 90 min, 10 μM fell in the range of 0.1 to 10 ×10⁻⁶ cm/s; the basolateral-to-apical permeability (Papp B→A) at 90 min, 10 μM fell in the range of 10 to 30 ×10⁻⁶ cm/s; the efflux ratio at 90 min, 10 μM is above 30. The IC50 in data set [1] is at least 1000 nM. Also, the IC50 in data set [2] was in the range of 100 to 1000 nM.
In the case of `Cc1cccnc1[C@@H]1CCC[C@H](c2nc3ccccn3c2COC2CCCN(C)C2)N1C` (some centres unmarked) [Compound I-63], in the data set “in vitro”, the Papp A→B at 90 min, 10 μM was 0.1 to 10 ×10⁻⁶ cm/s; the Papp B→A at 90 min, 10 μM was in the range of 10 to 30 ×10⁻⁶ cm/s; the efflux ratio at 90 min, 10 μM was 10 to 30. In addition, the IC50 in data set [1] was in the range of 100 to 1000 nM. Also, the IC50 in data set [2] was 0.01 to 100 nM.
For `Cc1cccnc1[C@@H]1CCC[C@H](c2cn3c(N4CCN(C5CC5)CC4)cccc3n2)N1C` [Compound I-66] the same measures were 10 to 30 ×10⁻⁶ cm/s, 10 to 30 ×10⁻⁶ cm/s, 0.1 to 10, 100 to 1000 nM and 0.01 to 100 nM.
As to `Cc1cccnc1[C@@H]1CCC[C@H](c2nc3cccc(N4CCN(C5CC5)CC4)n3c2Br)N1C` [Compound I-67], in “in vitro”, the Papp A→B at 90 min, 10 μM was in the range of 0.1 to 10 ×10⁻⁶ cm/s; the basolateral-to-apical permeability (Papp B→A) at 90 min, 10 μM was 0.1 to 10 ×10⁻⁶ cm/s; the efflux ratio at 90 min, 10 μM is 0.1 to 10. In data set [1], the IC50 is 100 to 1000 nM. The IC50 in data set [2] lay in the range of 0.01 to 100 nM.
Take `Cc1cccnc1[C@@H]1CCC[C@H](c2cn3c(N4CC5CCC(C4)N5C)cccc3n2)N1C` [Compound I-68]: in the data set “in vitro”, the apparent permeability from apical to basolateral (Papp A→B) at 90 min, 10 μM was in the range of 0.1 to 10 ×10⁻⁶ cm/s; the Papp B→A at 90 min, 10 μM fell in the range of 10 to 30 ×10⁻⁶ cm/s; the efflux ratio at 90 min, 10 μM lay within 10 to 30. For the same molecule, the IC50 in data set [1] lay within 0.01 to 100 nM. Besides, the IC50 in data set [2] fell in the range of 0.01 to 100 nM.
Regarding `Cc1cccnc1[C@@H]1CCC[C@H](c2cn3c(N4C5CCC4CN(C)C5)cccc3n2)N1C` [Compound I-69], in “in vitro”, the Papp A→B at 90 min, 10 μM lay in the range of 0.1 to 10 ×10⁻⁶ cm/s; the Papp B→A at 90 min, 10 μM fell in the range of 10 to 30 ×10⁻⁶ cm/s; the efflux ratio at 90 min, 10 μM fell in the range of 0.1 to 10. The half-maximal inhibitory concentration (IC50) in data set [1] is 0.01 to 100 nM. Further, in data set [2], the IC50 was 0.01 to 100 nM.
In the case of `Cc1cccnc1[C@@H]1CCC[C@H](c2nc3ccccn3c2CN2CCOCC2)N1C` [Compound I-73], in the data set “in vitro”, the Papp A→B at 90 min, 10 μM is 10 to 30 ×10⁻⁶ cm/s; the Papp B→A at 90 min, 10 μM lay in the range of 10 to 30 ×10⁻⁶ cm/s; the efflux ratio at 90 min, 10 μM fell in the range of 0.1 to 10. Moreover, the half-inhibitory concentration (IC50) in data set [1] was at least 1000 nM. For the same molecule, in data set [2], the IC50 was 100 to 1000 nM.
In the case of `CCN1CCN(c2cccc3nc([C@H]4CCC[C@@H](c5ncccc5C(C)C)N4C)c(CO)n23)CC1` [Compound I-75], in “in vitro”, the Papp A→B at 90 min, 10 μM lay in the range of 0.1 to 10 ×10⁻⁶ cm/s; the Papp B→A at 90 min, 10 μM was 10 to 30 ×10⁻⁶ cm/s; the efflux ratio at 90 min, 10 μM lay in the range of 0.1 to 10. For the same molecule, the IC50 in data set [1] is at least 1000 nM. Besides, the IC50 in data set [2] lay within 100 to 1000 nM.

The values are drawn from patent publication US10759796B2, “CXCR4 inhibitors and uses thereof” (X4 Pharmaceuticals, Inc., priority 2016, dated 2020).
